According to patent US10967029B2, “Method of using Cistanche tubulosa extract to prevent, slow down, or treat an eye disease caused by oxidative stress” (Sinphar Pharmaceutical Co., Ltd., priority 2014, dated 2021):
In brackets after ≈: the same amount, converted by molar mass. Read-outs that look alike come from different tables or passages of the source.

Legend:
RPE cells [1] = test: Protective effect to blue light irradiation-induced cytotoxicity (MTT assay); conditions: for most effective action concentration range to blue light irradiation: blue light-induced cytotoxicity
Method: (§1) The cell culturing comprises the following steps. • 1. RPE cell clones were taken out from anti-frozen tubes in liquid nitrogen and quickly moved to a sterile hood after thawed in 37° C. water bath for 1 minute. RPE cell clones were taken out and placed in 10 cm dishes having 10 mL DMEM (Dulbecco's Modified Eagle Medium) therein. 10% inactivated fetal bovine serum (FBS), 2 mM L-glutamine, 100 U/mL penicillin, and 100 µg/mL streptomycin were added into the DMEM. • 2. The dishes were placed in a 37° C. incubator and cultured in conditions of a mixture gas of 95% air and 5% CO2, as well as 70% humidity. The old mediums were replaced by fresh mediums every 3 days. Serum-free DMEM was used instead of the mediums before performing experiments. • 3. When cells proliferated to nearly saturation, the numbers of cells were counted by a cell counter. […] Since RPE cells are attachment type cells, the medium containing the cells was transferred into 15 mL centrifugation tubes and then centrifuged at 72 g for 5 mines at room temperature when the medium was replaced. After centrifugation, the supernatant was removed and then fresh medium was added for culturing.
Before experiment, the medium was replaced by serum-free medium. Fixed quantity of RPE cells (2×10^5 cells/mL) were respectively placed in 96 wells of a plate. […] Next, different concentrations of oxidative stress inducer were added to treat the cells. […] The blue light having a wavelength of 480 nm and an illuminance of 350 lux was emitted by a blue light-emitting-diode (LED). […] Afterwards, 200 μL DMSO was added to each well. After slight mixing, the plate was vibrated in the dark for 10 minutes. After completely dissolving the residual cells, the enzyme immunoassay analyzer was used to detect the absorbance of each well. The cells untreated by oxidative stress inducers and embodiments were used as the control group.
The statistical analysis was performed by Student's t-test or one way ANOVA. If P<0.05, it indicates a significant difference.
The concentrations of embodiment 3 were 15.625, 31.25, and 62.5 μg/mL. […]

RPE cells [2] = conditions: for most effective action concentration range to t-BHP: t-BHP-induced cytotoxicity
Method: as §1
(§2) Before experiment, the medium was replaced by serum-free medium. Fixed quantity of RPE cells (2×10^5 cells/mL) were respectively placed in 96 wells of a plate. […] Next, different concentrations of oxidative stress inducer were added to treat the cells. […] The blue light having a wavelength of 480 nm and an illuminance of 350 lux was emitted by a blue light-emitting-diode (LED). Subsequently after treated by irradiating with blue light for 7 days or oxidative stress inducer for 24 hours, 0.5 mg/mL of MTT was added and reacted at 37° C. for 2 hours. Afterwards, 200 μL DMSO was added to each well. After slight mixing, the plate was vibrated in the dark for 10 minutes. After completely dissolving the residual cells, the enzyme immunoassay analyzer was used to detect the absorbance of each well. The cells untreated by oxidative stress inducers and embodiments were used as the control group. […]

RPE cells [3] = format: cell-based; conditions: 0.1 mM H2O2
Method: as §1, §2

RPE cells [4] = test: Cell viability and growth measurement of RPE cells (MTT assay), cytotoxicity test; format: cell-based; conditions: cytotoxicity to RPE cells, 24 hours
Method: The cell culturing comprises the following steps. • 1.
Before experiments, the medium was replaced by serum-free medium. […] After placed in an incubator, the cells were cultured for 24 hours after treated by various concentrations of embodiments 1-5. Next, 1.0 mg/mL 3-(4,5-Dimethylthiazol-2-yl)-2,5-diphenyltetrazolium bromide (MTT) was added and reacted at 37° C. for 1 hour. Afterwards, 200 μL dimethyl sulfoxide (DMSO) was added into each well and shake in the dark at room temperature for 10 minutes after slight mixing. After the residual cells were completely dissolved, an enzyme immunoassay analyzer (MRX microplate reader, USA) was used to detect the 550 nm absorbance of each well. The cells untreated by embodiments were used as a control group after culturing for 24 hours.
One purpose of the example 1 is to test the cytotoxicity of the embodiments 1-5 to the RPE cells and the promotion of the embodiments 1-5 to the RPE cell growth. The mitochondrial enzyme of live cells can reduce the MTT to formazan of purple crystal dissolved by DMSO. In short, the metabolic activity of cells is used to determine whether cells are alive or not. The measured dissolving absorbance is equal to the cell viability. Therefore, the more the cells alive, the higher the absorbance. The calculating formula of the cell viability was shown below. Cell viability (%)=(light absorbance after cells treated by drugs for 24 hours/light absorbance of the control group after 24 hours)×100%
If P<0.05, it indicates a significant difference.
Referring to FIGS. 1-5, which are diagrams showing cytotoxicity testing results according to the instant disclosure respectively.

RPE cells [5] = test: Protective effect to NaN3-induced cytotoxicity (MTT assay); conditions: 10 mM NaN3 (viability about 50% without treatment); medium and high concentrations
Method: as §1, with “After centrifugation, the supernatant was removed and then fresh medium was added for culturing.” left out
Before experiment, the medium was replaced by serum-free medium. Fixed quantity of RPE cells (2×10^5 cells/mL) were respectively placed in 96 wells of a plate. […] After completely dissolving the residual cells, the enzyme immunoassay analyzer was used to detect the absorbance of each well. […]

With C[C@@H]1O[C@@H](O[C@@H]2[C@@H](O)[C@H](OCCc3ccc(O)c(O)c3)O[C@H](CO)[C@H]2OC(=O)/C=C/c2ccc(O)c(O)c2)[C@H](O)[C@H](O)[C@H]1O [Embodiment 3, Acteoside] as the molecule, how does the cell viability (RPE cells [1]; 5 days, 31.25 µg/mL) read?
The cell viability was “above 90%”.

What about the “most effective action concentration range to blue light irradiation” value (RPE cells [1]) of the same molecule?
Its value is “between low and medium concentrations”.

And the “cytotoxicity response at high concentration” value (RPE cells [2])?
Its value is “reasonable cytotoxicity responses were observed”.

What about the “most effective action concentration range to t-BHP” value (RPE cells [2]) of the same molecule?
The value was “between low and medium concentrations”.

And the “protection of cells from H2O2 damage” value (RPE cells [3])?
Its value is “protected”.

And the IC25 (RPE cells [4])?
Its IC25 is 31.25 µg/mL (≈ 50 µM).

And the IC75 (RPE cells [4])?
Its IC75 is 125 µg/mL (≈ 200 µM).

What about the IC50 (RPE cells [4]; read-out: IC50) of the same molecule?
The IC50 was 62.5 µg/mL (≈ 100 µM).

With C[C@@H]1O[C@@H](O[C@@H]2[C@@H](O)[C@H](OCCc3ccc(O)c(O)c3)O[C@H](COC(=O)/C=C/c3ccc(O)c(O)c3)[C@H]2O)[C@H](O)[C@H](O)[C@H]1O [Embodiment 4, Isoacteoside] as the molecule, how does the “most effective action concentration range to blue light irradiation” value (RPE cells [1]) read?
The value was “between low and medium concentrations”.

What about the cell viability (RPE cells [5]) of the same molecule?
Its cell viability is about 100%.

What about the IC25 (RPE cells [4]) of the same molecule?
The IC25 was 31.25 µg/mL (≈ 50 µM).

What about the IC75 (RPE cells [4]) of the same molecule?
The IC75 was 125 µg/mL (≈ 200 µM).

What about the IC50 (RPE cells [4]; read-out: IC50) of the same molecule?
The IC50 was 62.5 µg/mL (≈ 100 µM).

With Tubuloside A [Embodiment 5] as the molecule, how does the cell viability (RPE cells [5]) read?
Its cell viability is about 100%.

What about the “protection of cells from H2O2 damage” value (RPE cells [3]) of the same molecule?
The value was “protected”.

What about the IC25 (RPE cells [4]) of the same molecule?
Its IC25 is 150 µg/mL.

And the IC50 (RPE cells [4])?
The IC50 was 200 µg/mL.

And the IC75 (RPE cells [4])?
The IC75 was 250 µg/mL.

How did the “most effective action concentration range to t-BHP” value (RPE cells [2]) turn out when echinacoside [Embodiment 2] was run?
Its value is “between low and medium concentrations”.

What about the “protection of cells from H2O2 damage” value (RPE cells [3]) of the same molecule?
The value was “protected”.

What about the IC25 (RPE cells [4]) of the same molecule?
The IC25 was 50 µg/mL.

And the IC50 (RPE cells [4])?
The IC50 was 75 µg/mL.

And the IC75 (RPE cells [4])?
The IC75 was 100 µg/mL.
